Test results reported in patent publication US6727390B2, “Fluorous phosphines and phosphine oxides” (University of Pittsburgh, priority 2001, dated 2004).

Tests used:
[1] = Liquid-liquid partition coefficients between FC-72 and organic solvents (partitioning followed by HPLC analysis); format: physicochemical; conditions: room temperature; for Partition coefficient FC-72/THF (P = cfluorous phase/corganic phase): 50/50 (v/v) FC-72/THF; for Partition coefficient FC-72/methanol (P = cfluorous phase/corganic phase): 50/50 (v/v) FC-72/methanol; for Partition coefficient FC-72/toluene (P = cfluorous phase/corganic phase): 50/50 (v/v) FC-72/toluene
Experimental: Liquid-liquid partition coefficients for all six phosphines between FC-72 and three organic solvents (methanol, THF, and toluene) were also measured. The procedure involved a simple partitioning followed by HPLC analysis.

## FC(F)(F)C(F)(F)C(F)(F)C(F)(F)C(F)(F)C(F)(F)CCc1ccc(P(c2ccc(CCC(F)(F)C(F)(F)C(F)(F)C(F)(F)C(F)(F)C(F)(F)F)cc2)c2ccc(CCC(F)(F)C(F)(F)C(F)(F)C(F)(F)C(F)(F)C(F)(F)F)cc2)cc1 [Compound 1a, Tris-[4-(3,3,4,4,5,5,6,6,7,7,8,8,8-tridecafluorooctyl)phenyl]phosphane]
other
  melting point: 49.9 to 52.4 °C
[1]
  Partition coefficient FC-72/THF (P = cfluorous phase/corganic phase): 0.08
  Partition coefficient FC-72/methanol (P = cfluorous phase/corganic phase): 30.03
  Partition coefficient FC-72/toluene (P = cfluorous phase/corganic phase): 0.75

## FC(F)(F)C(F)(F)C(F)(F)C(F)(F)C(F)(F)C(F)(F)CCc1ccc(P(c2ccccc2)c2ccc(CCC(F)(F)C(F)(F)C(F)(F)C(F)(F)C(F)(F)C(F)(F)F)cc2)cc1 [Compound 1b, Phenyl-bis-[4-(3,3,4,4,5,5,6,6,7,7,8,8,8-tridecafluorooctyl)phenyl]phosphane]
other
  melting point: 42.1 to 43.1 °C
[1]
  Partition coefficient FC-72/THF (P = cfluorous phase/corganic phase): 0.05
  Partition coefficient FC-72/methanol (P = cfluorous phase/corganic phase): 1.86
  Partition coefficient FC-72/toluene (P = cfluorous phase/corganic phase): 0.05

## FC(F)(F)C(F)(F)C(F)(F)C(F)(F)C(F)(F)C(F)(F)CCc1ccc(P(c2ccccc2)c2ccccc2)cc1 [Compound 1c, Diphenyl-[4-(3,3,4,4,5,5,6,6,7,7,8,8,8-tridecafluorooctyl)phenyl]phosphane]
[1]
  Partition coefficient FC-72/THF (P = cfluorous phase/corganic phase): 0.02
  Partition coefficient FC-72/methanol (P = cfluorous phase/corganic phase): 0.12
  Partition coefficient FC-72/toluene (P = cfluorous phase/corganic phase): 0.05

## FC(F)(F)C(F)(F)C(F)(F)C(Cc1ccc(P(c2ccc(CC(C(F)(F)F)(C(F)(F)F)C(F)(F)C(F)(F)C(F)(F)F)cc2)c2ccc(CC(C(F)(F)F)(C(F)(F)F)C(F)(F)C(F)(F)C(F)(F)F)cc2)cc1)(C(F)(F)F)C(F)(F)F [Compound 5a, Tris-[4-(3,3,4,4,5,5,5-heptafluoro-2,2-bis-trifluoromethylpentyl)phenyl]phosphane]
[1]
  Partition coefficient FC-72/THF (P = cfluorous phase/corganic phase): 0.51
  Partition coefficient FC-72/methanol (P = cfluorous phase/corganic phase): 18.48
  Partition coefficient FC-72/toluene (P = cfluorous phase/corganic phase): 6.84

## FC(F)(F)C(F)(F)C(F)(F)C(Cc1ccc(P(c2ccccc2)c2ccccc2)cc1)(C(F)(F)F)C(F)(F)F [Compound 5c, Diphenyl-[4-(3,3,4,4,5,5,5-heptafluoro-2,2-bis-trifluoromethylpentyl)phenyl]phosphane]
[1]
  Partition coefficient FC-72/THF (P = cfluorous phase/corganic phase): 0.01
  Partition coefficient FC-72/methanol (P = cfluorous phase/corganic phase): 0.09
  Partition coefficient FC-72/toluene (P = cfluorous phase/corganic phase): 0.12

## FC(F)(F)C(F)(F)C(F)(F)C(Cc1ccc(P(c2ccccc2)c2ccc(CC(C(F)(F)F)(C(F)(F)F)C(F)(F)C(F)(F)C(F)(F)F)cc2)cc1)(C(F)(F)F)C(F)(F)F [Compound 5b, Phenyl-bis-[4-(3,3,4,4,5,5,5-heptafluoro-2,2-bis-rifluoromethylpentyl)phenyl]phosphane]
[1]
  Partition coefficient FC-72/THF (P = cfluorous phase/corganic phase): 1.05
  Partition coefficient FC-72/methanol (P = cfluorous phase/corganic phase): 3.34
  Partition coefficient FC-72/toluene (P = cfluorous phase/corganic phase): 0.18
